# Results as given in ChEMBL document CHEMBL3774375, “Structure-Based Identification of Inhibitory Fragments Targeting the p300/CBP-Associated Factor Bromodomain” (J Med Chem, 2016).
# The source made the active and inactive calls. The calls are words filed in the database; no cut-off is given here.
# What was measured:
# [1] = molecular target: T1, Histone acetyltransferase KAT2B (Homo sapiens, UniProt Q92831)
# Target sequence in this assay (Q92831 whole entry, looked up): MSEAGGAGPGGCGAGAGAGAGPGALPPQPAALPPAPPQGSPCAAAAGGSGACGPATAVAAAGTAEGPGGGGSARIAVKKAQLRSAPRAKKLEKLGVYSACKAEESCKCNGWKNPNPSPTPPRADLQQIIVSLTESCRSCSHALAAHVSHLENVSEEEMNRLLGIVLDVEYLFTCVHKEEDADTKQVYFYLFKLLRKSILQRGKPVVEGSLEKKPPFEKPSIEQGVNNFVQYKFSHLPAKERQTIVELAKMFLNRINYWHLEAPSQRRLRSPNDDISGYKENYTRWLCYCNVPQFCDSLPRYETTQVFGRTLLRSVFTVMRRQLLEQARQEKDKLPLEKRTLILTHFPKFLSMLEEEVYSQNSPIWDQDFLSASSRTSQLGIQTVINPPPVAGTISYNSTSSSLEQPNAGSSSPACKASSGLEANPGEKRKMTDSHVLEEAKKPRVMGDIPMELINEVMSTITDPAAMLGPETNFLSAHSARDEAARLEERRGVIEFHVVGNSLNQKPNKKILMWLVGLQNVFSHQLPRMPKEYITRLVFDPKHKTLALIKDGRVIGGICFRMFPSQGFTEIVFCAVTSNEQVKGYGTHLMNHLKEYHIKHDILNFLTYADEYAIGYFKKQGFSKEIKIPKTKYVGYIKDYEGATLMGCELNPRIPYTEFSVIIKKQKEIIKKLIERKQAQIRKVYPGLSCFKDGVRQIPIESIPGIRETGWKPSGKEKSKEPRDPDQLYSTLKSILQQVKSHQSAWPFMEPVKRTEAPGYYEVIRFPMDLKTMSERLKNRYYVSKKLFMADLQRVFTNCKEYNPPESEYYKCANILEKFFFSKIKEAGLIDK
# Description: Binding affinity to recombinant N-terminal His-tagged PCAF (715 to 831 residues) (unknown origin) expressed in Escherichia coli Rosetta cells at 1 mM by differential scanning fluorimetry
# [2] = molecular target: T2, Bromodomain-containing protein 9 (Homo sapiens) (UniProt Q9H8M2); test: Inhibition of BRD9 (unknown origin) at 25 uM by alphascreen assay
# T2 sequence (whole entry): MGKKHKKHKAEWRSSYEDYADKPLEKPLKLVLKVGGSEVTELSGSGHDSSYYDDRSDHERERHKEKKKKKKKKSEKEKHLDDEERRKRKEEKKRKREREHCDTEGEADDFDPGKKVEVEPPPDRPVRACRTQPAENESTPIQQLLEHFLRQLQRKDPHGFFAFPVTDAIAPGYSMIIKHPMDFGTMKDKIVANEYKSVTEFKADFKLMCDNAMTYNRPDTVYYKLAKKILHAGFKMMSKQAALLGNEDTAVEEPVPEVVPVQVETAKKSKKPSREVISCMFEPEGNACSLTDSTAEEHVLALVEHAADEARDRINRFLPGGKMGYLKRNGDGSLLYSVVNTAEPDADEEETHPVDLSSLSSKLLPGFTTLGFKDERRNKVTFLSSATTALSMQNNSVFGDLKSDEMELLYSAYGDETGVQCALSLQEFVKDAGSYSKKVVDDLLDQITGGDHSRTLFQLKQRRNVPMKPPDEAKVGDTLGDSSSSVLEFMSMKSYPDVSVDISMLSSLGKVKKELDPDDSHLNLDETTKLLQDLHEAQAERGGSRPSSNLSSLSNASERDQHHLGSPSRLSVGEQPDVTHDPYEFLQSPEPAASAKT
# [3] = molecular target: T1, Histone acetyltransferase KAT2B; test: Binding affinity to recombinant N-terminal His-tagged PCAF (715 to 831 residues) (unknown origin) expressed in Escherichia coli Rosetta cells at 0.5 mM by differential scanning fluorimetry
# Target sequence in this assay (Q92831 whole entry, looked up): as the sequence (Q92831 whole entry, looked up) above
# [4] = molecular target: T3, Bromodomain-containing protein 7 (Homo sapiens) (UniProt Q9NPI1); test: Binding affinity to recombinant human BRD7 by differential scanning fluorimetry
# T3 sequence (whole entry): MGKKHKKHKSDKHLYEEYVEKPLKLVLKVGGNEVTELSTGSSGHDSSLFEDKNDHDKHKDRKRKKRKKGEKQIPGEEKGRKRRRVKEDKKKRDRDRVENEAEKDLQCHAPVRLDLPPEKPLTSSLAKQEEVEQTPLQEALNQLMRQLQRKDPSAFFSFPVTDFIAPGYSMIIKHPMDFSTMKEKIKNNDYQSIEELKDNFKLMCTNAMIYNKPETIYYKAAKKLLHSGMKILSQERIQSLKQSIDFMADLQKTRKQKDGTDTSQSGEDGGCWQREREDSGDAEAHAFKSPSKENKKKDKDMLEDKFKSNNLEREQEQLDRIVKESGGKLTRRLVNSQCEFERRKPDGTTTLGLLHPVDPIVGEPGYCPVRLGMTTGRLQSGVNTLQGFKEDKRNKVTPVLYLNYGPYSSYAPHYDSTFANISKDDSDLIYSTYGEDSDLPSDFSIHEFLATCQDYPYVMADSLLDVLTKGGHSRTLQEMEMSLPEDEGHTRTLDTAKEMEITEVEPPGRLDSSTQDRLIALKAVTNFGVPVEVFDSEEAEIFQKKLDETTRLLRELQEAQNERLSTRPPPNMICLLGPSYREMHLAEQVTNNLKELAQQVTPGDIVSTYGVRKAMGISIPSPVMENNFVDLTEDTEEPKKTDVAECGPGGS
# [5] = molecular target: T1, Histone acetyltransferase KAT2B; test: Binding affinity to N-terminal His-tagged PCAF (715 to 831 residues) (unknown origin) expressed in Escherichia coli Rosetta cells by isothermal titration calorimetry
# Target sequence in this assay (Q92831 whole entry): as the sequence (Q92831 whole entry, looked up) above
# [6] = molecular target: Chromatin remodeling regulator CECR2 (Homo sapiens) (UniProt Q9BXF3); test: Binding affinity to recombinant human CECR2 by differential scanning fluorimetry
# Sequence of Chromatin remodeling regulator CECR2 (Homo sapiens) (Q9BXF3 whole entry, looked up): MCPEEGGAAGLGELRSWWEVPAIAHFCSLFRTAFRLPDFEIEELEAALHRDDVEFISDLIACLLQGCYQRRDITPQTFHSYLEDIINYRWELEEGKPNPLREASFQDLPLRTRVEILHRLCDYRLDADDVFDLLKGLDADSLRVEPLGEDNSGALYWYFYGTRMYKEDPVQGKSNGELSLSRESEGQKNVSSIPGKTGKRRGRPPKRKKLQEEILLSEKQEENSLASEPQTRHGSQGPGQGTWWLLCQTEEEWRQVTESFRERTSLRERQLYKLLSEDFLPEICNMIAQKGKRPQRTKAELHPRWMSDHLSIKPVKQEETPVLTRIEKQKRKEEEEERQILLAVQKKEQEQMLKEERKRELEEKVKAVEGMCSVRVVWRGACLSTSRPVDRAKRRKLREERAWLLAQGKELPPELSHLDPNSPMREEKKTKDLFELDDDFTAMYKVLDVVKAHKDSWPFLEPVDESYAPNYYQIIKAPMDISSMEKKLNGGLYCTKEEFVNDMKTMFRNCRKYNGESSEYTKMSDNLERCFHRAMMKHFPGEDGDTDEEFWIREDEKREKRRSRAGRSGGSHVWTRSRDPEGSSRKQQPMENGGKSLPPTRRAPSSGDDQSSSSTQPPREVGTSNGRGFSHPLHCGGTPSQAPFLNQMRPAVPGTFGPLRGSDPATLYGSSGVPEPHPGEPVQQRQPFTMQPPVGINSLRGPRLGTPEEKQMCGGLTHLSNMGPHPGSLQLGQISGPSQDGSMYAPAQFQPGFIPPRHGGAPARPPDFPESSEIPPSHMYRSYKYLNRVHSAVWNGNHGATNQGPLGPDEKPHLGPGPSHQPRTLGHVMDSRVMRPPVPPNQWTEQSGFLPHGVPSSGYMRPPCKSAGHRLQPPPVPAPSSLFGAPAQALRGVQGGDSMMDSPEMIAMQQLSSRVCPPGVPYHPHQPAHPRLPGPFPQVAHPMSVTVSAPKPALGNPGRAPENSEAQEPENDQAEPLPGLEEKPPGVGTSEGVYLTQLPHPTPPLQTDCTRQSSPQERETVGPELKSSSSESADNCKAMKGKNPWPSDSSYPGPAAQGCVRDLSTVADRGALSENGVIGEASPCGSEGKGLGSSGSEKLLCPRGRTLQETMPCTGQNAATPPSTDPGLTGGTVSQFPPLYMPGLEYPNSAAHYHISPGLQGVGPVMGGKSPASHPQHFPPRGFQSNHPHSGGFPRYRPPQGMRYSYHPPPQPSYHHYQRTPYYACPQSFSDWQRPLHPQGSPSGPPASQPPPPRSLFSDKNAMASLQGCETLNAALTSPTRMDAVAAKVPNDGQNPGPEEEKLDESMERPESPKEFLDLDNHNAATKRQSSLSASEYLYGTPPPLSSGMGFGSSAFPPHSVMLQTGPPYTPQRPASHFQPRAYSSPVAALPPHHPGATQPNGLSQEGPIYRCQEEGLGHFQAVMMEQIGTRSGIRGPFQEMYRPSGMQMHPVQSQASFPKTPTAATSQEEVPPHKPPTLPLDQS
ΔTm [1] [°C],Structure (SMILES),other results
0.9,Cc1nn(CCO)c2c1C(=O)CCC2,–
0.8,NC(=O)c1cccc2c1OCCO2,–
1,NC1CCN(C(=O)C2CC2)CC1,–
–,Cc1cc(=O)n(C)c2cc(NS(C)(=O)=O)ccc12,inhibition [2]: Active
0.6,Cc1c(N)c(=O)n(-c2ccccc2)n1C,–
2.6,CC(=O)Nc1ccc2c(C)cc(=O)n(C)c2c1,inhibition [2]: Active
1.3,Oc1ccccc1-c1ccno1,–
2,Cn1c(=O)ccc2ccccc21,–
0.8,COc1cccc2onc(N)c12,–
–,CNC(=O)c1cc(OCC(=O)Nc2ccccc2)ccc1OC1CCOCC1,ΔTm [3]: 3.3 °C; ΔTm [4]: 6.5 °C; Kd [5]: 6.8 µM; ΔTm [6]: 7.1 °C
1,NCc1ccc(-c2csnn2)cc1,–
2,NC(=O)c1ccc2[nH]ccc2c1,–
0.7,COC(=O)c1ccc(N2CCOCC2)nc1,–
1.5,CN1Cc2ccccc2C1=O,–
